For series [1], the system named is 22Rv1, LNCaP, PC3, PWR-1E and MCF-7 cells. Kind of series: Antiproliferation assay across all cell lines. Format: cell-based. The conditions noted are these: Homo sapiens, 72 h. How it is done: (§1) Antiproliferation assay: To determine the amount of Cu(II) required for cell studies a checkerboard assay was performed by varying the prodrug or drug concentration and Cu(II) concentration. 22RV1, LNCaP, PC3, MCF-7, and PWR-1E (5,000 cells/well) were seeded in 96-well plates with regular media (22Rv1, LNCaP, and PC-3 in RPMI with 10% FBS; MCF-7 in DMEM with 10% FBS; PWR-1E in Keratinocyte-SFM) and let adhere for 24 h. The following day, the media was replaced with serum free media and cells were treated as indicated for an additional 24 h or 72 h. Cell proliferation was measured using a fluorometric resazurin reduction method. 20 μL of 700 μM Resazurin (Sigma R7017) was added in each well and incubated at 37° C. for 2 h. Fluorescence at 580 nm was measured by exciting at 555 nm with a plate reader. Each experiment was performed in triplicate, and the experiments were repeated three times. Viability vs drug concentration plot from a representative experiment are shown with standard deviation from the experiment as error bar. The error bar in IC50 values represents standard deviation from three different experiments.

Another series relates to LNCaP cells. Kind of series: cells. Format: cell-based, human. How it is done:
as §1

For a further series, the system named is PC-3 cells. Kind of series: cells. Format: cell-based, human. How it is done: as §1
The next series concerns 22Rv1 cells. Kind of series: cells. Format: cell-based, human. How it is done: as §1
A further series deals with PWR-1E cells. The series is described as follows: cells. Format: cell-based, human. The protocol:
as §1

In a further series the test system is MCF-7 cells. Kind of series: cells. Format: cell-based, human. How it is done: as §1
The next series relates to mCRPC patients. Conditions: phase 1, mCRPC patients; cited from earlier work.
Another series has as its target GGT (Homo sapiens, UniProt P19440). Kind of series: Competition experiments vs. γE-pNA for GGT. The conditions noted are these: vs E-pNA; PBS, pH 7.4, 1 mM GlyGly. Format: biochemical. The protocol: Competition experiments vs. γE-pNA for GGT: To perform the inhibition study, a serial dilution of γE-pNA was performed ranging from 1 mM to 3 μM in PBS with 1 mM Gly-Gly (dilution factor=0.5; pH 7.4; 10% DMSO; 100 μL) using a clear, flat bottom 96 well plate. GGT binding molecules, as indicated, were added to separate sets of triplicate wells to reach a final concentration of 10 and 100 μM. Before the addition of enzyme, the plate was cooled to 4° C. for 15 min. To initiate the assay, 10 μL of 50 U/L GGT was added to each well and an initial absorbance scan was performed. Subsequent scans were performed every 10 min for ˜2 h. In between each scan, the plates were stored at 37° C. in a humidified incubator to reduce solvent evaporation. The experiment was repeated in triplicate.
To probe the reactivity of Glu-DTC in comparison to the enzyme's natural substrate GSH, competition experiments were conducted against the colorimetric substrate L-glutamic acid γ-(p-nitroanilide) [E-pNA]. The colorimetric assay involves monitoring p-nitroaniline release by absorbance at 405 nm upon reaction of the probe substrate E-pNA with GGT in the presence of an inhibiting substrate, either Glu-DTC (FIG. 15A) or GSH (FIG. 15C).

Series [2] is classed as in vitro ADME, human. How it is done:
Conditioned media from prostate cancer cell line, LNCaP, was used to test the cleavage of prodrug. […] Since DTC is not observed in the UV or mass spectrometer, Cu(II) was added before recording mass spectra to visualize the release of DTC. Cu(DTC)2 complex was observed indicating the release of DTC. PSA-DTC was completely cleaved within 4 h.

Another series has as its system aminopeptidases. Kind of series: Further treatment with aminopeptidases (DTC release). Conditions: after PSA treatment. Format: biochemical. How it is done:
(§2) It is hypothesized that the […] enzyme cleaves the peptide bond between Tyr and Ser. The cleaved products are shown in Scheme 2. When treated with 20 μg/mL of PSA, PSA-DTC was completely converted to products within 6 h (FIG. 6A).

For a further series, the target named is PSA enzyme (Homo sapiens, UniProt P07288). Kind of series: In vitro cleavage by PSA enzyme (LC trace). Conditions: 20 μg/mL of PSA. Format: biochemical. How it is done:
as §2

Structures are written as SMILES. Read-outs that look alike come from different tables or passages of the source. Non-standard residues stand in square brackets, D forms with d. Residues, ends and D or L forms follow the SMILES beside them. *: point of attachment. X1 = CCN(CC)C(=S)SCc1ccc(N*)cc1

PSA enzyme, sequence (P07288 25-261): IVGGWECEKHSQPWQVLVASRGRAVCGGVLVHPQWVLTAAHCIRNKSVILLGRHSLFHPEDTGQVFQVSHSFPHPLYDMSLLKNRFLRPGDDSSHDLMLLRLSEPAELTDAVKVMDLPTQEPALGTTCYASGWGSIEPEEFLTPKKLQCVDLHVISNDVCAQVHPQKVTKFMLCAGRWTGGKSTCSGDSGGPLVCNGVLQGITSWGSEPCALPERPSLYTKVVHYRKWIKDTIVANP
GGT, sequence (P19440 whole entry, species assumed): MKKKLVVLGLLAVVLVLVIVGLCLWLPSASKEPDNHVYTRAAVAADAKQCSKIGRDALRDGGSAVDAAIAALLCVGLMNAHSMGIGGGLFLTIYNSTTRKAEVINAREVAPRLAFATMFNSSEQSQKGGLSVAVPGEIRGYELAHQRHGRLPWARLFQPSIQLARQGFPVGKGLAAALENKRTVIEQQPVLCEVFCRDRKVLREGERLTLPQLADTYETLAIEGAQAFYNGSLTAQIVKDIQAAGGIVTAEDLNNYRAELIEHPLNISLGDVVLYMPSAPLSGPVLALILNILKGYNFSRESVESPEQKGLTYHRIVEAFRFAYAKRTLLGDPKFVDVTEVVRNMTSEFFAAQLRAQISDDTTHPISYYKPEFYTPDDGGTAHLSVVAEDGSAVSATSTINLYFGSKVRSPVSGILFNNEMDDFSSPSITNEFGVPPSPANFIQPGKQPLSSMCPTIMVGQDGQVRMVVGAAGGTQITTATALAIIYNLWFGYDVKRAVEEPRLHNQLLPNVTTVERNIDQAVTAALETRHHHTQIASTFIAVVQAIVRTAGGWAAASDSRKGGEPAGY

For the compound `CCN(CC)C(=S)SSC(=S)N(CC)CC` [DSF, disulfiram, reference compound], the IC50 was 40 to 150 nM in series [1] (1 μM CuSO4, read-out: IC50 range across all cell lines); 80 to 300 nM in [1] (DSF is a dimer of DTC, read-out: IC50 per monomer); 130 ± 20 nM in the series with LNCaP cells (Homo sapiens, LNCaP, 24 h, LNCaP, 24 h, 1 μM CuSO4, read-out: IC50 with 1 μM CuSO4); 140 ± 10 nM in the series on LNCaP cells (Homo sapiens, LNCaP, 72 h, LNCaP, 72 h, 1 μM CuSO4, read-out: IC50 with 1 μM CuSO4); 120 nM in the series with LNCaP cells (Homo sapiens, LNCaP, Table 1, LNCaP, time and Cu not given, read-out: IC50 values); 70 ± 10 nM in the series with PC-3 cells (Homo sapiens, PC-3, 24 h, 1 μM CuSO4, read-out: IC50 with 1 μM CuSO4). Also, the IC50 in the series with PC-3 cells (Homo sapiens, PC-3, 72 h, 1 μM CuSO4, read-out: IC50 with 1 μM CuSO4) stood at 57 ± 10 nM; with PC-3 cells (Homo sapiens, Table 1, PC-3, time and Cu not given, read-out: IC50 values), 66 nM; in the series with 22Rv1 cells (Homo sapiens, 22Rv1, 24 h, 1 μM CuSO4, read-out: IC50 with 1 μM CuSO4) it was 72 ± 10 nM; in the series with 22Rv1 cells (Homo sapiens, 22Rv1, 72 h, 1 μM CuSO4, read-out: IC50 with 1 μM CuSO4) it was 92 ± 5 nM; with 22Rv1 cells (Homo sapiens, Table 1, 22Rv1, time and Cu not given, read-out: IC50 values) it was 65 nM; in the series on PWR-1E cells (Homo sapiens, PWR-1E, 24 h, PWR-1E, 24 h, 1 μM CuSO4, read-out: IC50 with 1 μM CuSO4), 80 ± 20 nM. Moreover, the IC50 in the series on PWR-1E cells (Homo sapiens, PWR-1E, 72 h, PWR-1E, 72 h, 1 μM CuSO4, read-out: IC50 with 1 μM CuSO4) is 70 ± 10 nM; in the series with PWR-1E cells (Homo sapiens, PWR-1E, Table 1, PWR-1E, time and Cu not given, read-out: IC50 values) it was 72 nM; in the series on MCF-7 cells (Homo sapiens, MCF7, MCF-7, 24 h, 1 μM CuSO4, read-out: IC50 with 1 μM CuSO4), 180 ± 10 nM; with MCF-7 cells (Homo sapiens, MCF7, MCF-7, 72 h, 1 μM CuSO4, read-out: IC50 with 1 μM CuSO4), 47 ± 2 nM; with MCF-7 cells (Homo sapiens, MCF7, Table 1, MCF-7, time and Cu not given, read-out: IC50 values) it was 130 nM. Moreover, the “Cu(II) added to the growth medium required for antiproliferative activity” value in the series with 22Rv1 cells (checkerboard pilot studies in 22Rv1 cells) was determined as 300 nM. For the same compound, the “patients who developed grade 3 adverse events” value in the series on mCRPC patients was 6 of the 12. Besides, the “toxicity and efficacy outcome” value in the series with mCRPC patients is “significant toxicity without improvement in efficacy”.
Turning to `N[C@@H](CCC(=O)N[C@@H](CS)C(=O)NCC(=O)O)C(=O)O` [GSH, glutathione, reference compound], the Ki on GGT turned out to be 99000 ± 7000 nM.
In the case of `CCN(CC)C(=S)SCc1ccc(NC(=O)[C@@H](CC(C)C)NC(=O)[C@@H](CO)NC(=O)[C@@H](Cc2ccc(O)cc2)NC(=O)[C@@H](Cc2ccc(O)cc2)NC(=O)[C@@H](CO)NC(=O)[C@@H](CO)NC(=O)[C@H](N)CCCNC(=N)N)cc1` [PSA-DTC] (H-[dR][dS][dS][dY][dY][dS][dL]-X1), the “time to complete cleavage” value in [2] was not above 4 h. Moreover, the “release of DTC on treatment with aminopeptidases” value with aminopeptidases was “led to the release of DTC”. Further, the “time to complete conversion to products” value with PSA enzyme is not above 6 h. For the same compound, the IC50 was determined as 390 nM in the series with LNCaP cells; 490 nM in the series on PC-3 cells; 770 nM in the series with 22Rv1 cells; 500 nM in the series on PWR-1E cells; 330 nM with MCF-7 cells. In the series with LNCaP cells (LNCaP, varying Cu and prodrug, within 24 h (dPSA-DTC: even after 72 h)), the “antiproliferative activity in checker board assay with Cu” value is recorded as “showed antiproliferative activity in the presence of Cu”.

These data come from US11007273B2, “Prochelators as targeted prodrugs for prostate cancer and methods of making and using same” (Duke University, priority 2017, dated 2021).
